Patent publication US10689377B2 (Mirati Therapeutics, Inc., priority 2017, dated 2020)
Structures can show the parent of a compound that is named as a salt.

target: KRas G12C (Homo sapiens, UniProt P01116, G12C); assay: Cellular inhibition of KRas G12C measured by Phospho-ERK in NCI-H358 cells; type: cell-based; settings: pERK(Thr202/Tyr204) normalized with GAPDH, NCI-H358 cells, 3 hours; read-out: IC50
Method: Cells were plated in poly-D-Lysine coated 96-well plates at a concentration of 50,000 cells/well and allowed to attach for 8-12 hours. Diluted compounds were then added at a final concentration of 0.5% DMSO. After 3 hours, the medium was removed, 150 μL of 4% formaldehyde was added and the plates were incubated for 20 minutes. The plates were washed with PBS, and permeabilized using 150 μL of ice cold 100% methanol for 10 minutes. Non-specific antibody binding to the plates was blocked using 100 μL Licor Blocking Buffer (Li-Cor Biotechnology, Lincoln Nebr.) for 1 hour at room temperature. Positive control samples and samples lacking cells were parallel processed with test samples as standards.
The amount Phospho-ERK was determined using an antibody specific for the phosphorylated form of ERK and compared to the amount of GAPDH. […] The plates were incubated for 2 hours at room temperature. The plates were washed with PBS+0.05% Tween 20.
Secondary antibodies used to visualize primary antibodies were added as follows: Anti-rabbit-680 diluted 1:1000 and Anti-mouse-800 diluted 1:1000 in Licor Block+0.05% Tween 20 and incubated for 1 hour at room temperature. The plates were washed with PBS+0.05% Tween 20. A 100 μL aliquot of PBS was added to each well and the plates were read on a LICOR AERIUS plate reader.
The pERK(Thr202/Tyr204) signal was normalized with the GAPDH signal and percent of DMSO control values were calculated. IC50 values were generated using a 4 parameter fit of the dose response curve. Key: “A”≥0.0001-≤1 μM; “B”>1 μM and ND=not determined.

KRas G12C, sequence (P01116 1-188 isoform P01116-2 G12C): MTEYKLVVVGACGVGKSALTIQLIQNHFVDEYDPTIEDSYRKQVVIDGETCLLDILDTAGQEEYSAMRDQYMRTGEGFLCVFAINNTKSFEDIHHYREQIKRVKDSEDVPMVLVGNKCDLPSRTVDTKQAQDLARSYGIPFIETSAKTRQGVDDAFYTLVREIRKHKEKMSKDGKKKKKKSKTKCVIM

Structure (SMILES)	IC50
C=CC(=O)N1CCN(c2nc(OC(C)CCN(C)C)nc3c2CCN(c2cc(O)cc4ccccc24)C3)CC1 (stereo not drawn) [Example 21, 1-(4-(2-((4-(dimethylamino)butan-2-yl)oxy)-7-(3-hydroxynaphthalen-1-yl)-5,6,7,8-tetrahydropyrido[3,4-d]pyrimidin-4-yl)piperazin-1-yl)prop-2-en-1-one]	0.1 to 1000 nM
C=CC(=O)N1CCN(c2nc(OC3CCN(C)CC3)nc3c2CCN(c2cc(O)cc4ccccc24)C3)CC1 [Example 22, 1-(4-(7-(3-hydroxynaphthalen-1-yl)-2-((1-methylpiperidin-4-yl)oxy)-5,6,7,8-tetrahydropyrido[3,4-d]pyrimidin-4-yl)piperazin-1-yl)prop-2-en-1-one]	> 1000 nM
C=CC(=O)N1CCN(c2nc(OC3CCN(C)C3)nc3c2CCN(c2cc(O)cc4ccccc24)C3)CC1 (stereo not drawn) [Example 23, 1-(4-(7-(3-hydroxynaphthalen-1-yl)-2-((1-methylpyrrolidin-3-yl)oxy)-5,6,7,8-tetrahydropyrido[3,4-d]pyrimidin-4-yl)piperazin-1-yl)prop-2-en-1-one]	> 1000 nM
C=CC(=O)N1CCN(c2nc(OC(C)CN(C)C)nc3c2CCN(c2cccc4ccccc24)C3)CC1 (stereo not drawn) [Example 24, 1-(4-(2-((1-(dimethylamino)propan-2-yl)oxy)-7-(naphthalen-1-yl)-5,6,7,8-tetrahydropyrido[3,4-d]pyrimidin-4-yl)piperazin-1-yl)prop-2-en-1-one]	> 1000 nM
C=CC(=O)N1CCN(c2nc(OCCCN(C)C)nc3c2CCN(C(C)c2ccccc2)C3)CC1 (stereo not drawn) [Example 25, 1-(4-(2-(3-(dimethylamino)propoxy)-7-(1-phenylethyl)-5,6,7,8-tetrahydropyrido[3,4-d]pyrimidin-4-yl)piperazin-1-yl)prop-2-en-1-one]	> 1000 nM
C=CC(=O)N1CCN(c2nc(N3CCN(CCO)CC3)nc3c2CCN(c2cc(O)cc4ccccc24)C3)CC1 [Example 26, 1-(4-(2-(4-(2-hydroxyethyl)piperazin-1-yl)-7-(3-hydroxynaphthalen-1-yl)-5,6,7,8-tetrahydropyrido[3,4-d]pyrimidin-4-yl)piperazin-1-yl)prop-2-en-1-one]	> 1000 nM
C=CC(=O)N1CCN(c2nc(OCCN3CCS(=O)(=O)CC3)nc3c2CCN(c2cc(O)cc4ccccc24)C3)CC1 [Example 33, 1-(4-(2-(2-(1,1-dioxidothiomorpholino)ethoxy)-7-(3-hydroxynaphthalen-1-yl)-5,6,7,8-tetrahydropyrido[3,4-d]pyrimidin-4-yl)piperazin-1-yl)prop-2-en-1-one trifluoroacetate]	> 1000 nM
C=CC(=O)N1CCN(c2nc(OCCCN3CCS(=O)(=O)CC3)nc3c2CCN(c2cc(O)cc4ccccc24)C3)CC1 [Example 34, 1-(4-(2-(3-(1,1-dioxidothiomorpholino)propoxy)-7-(3-hydroxynaphthalen-1-yl)-5,6,7,8-tetrahydropyrido[3,4-d]pyrimidin-4-yl)piperazin-1-yl)prop-2-en-1-one trifluoroacetate]	> 1000 nM
C=CC(=O)N1CCN(c2nc(OCCCCN3CCOCC3)nc3c2CCN(c2cc(O)cc4ccccc24)C3)CC1 [Example 35, 1-(4-(7-(3-hydroxynaphthalen-1-yl)-2-(4-morpholinobutoxy)-5,6,7,8-tetrahydropyrido[3,4-d]pyrimidin-4-yl)piperazin-1-yl)prop-2-en-1-one trifluoroacetate]	> 1000 nM
C=CC(=O)N1CCN(c2nc(O[C@H](C)CN3CCN(C(C)=O)CC3)nc3c2CCN(c2cc(O)cc4ccccc24)C3)CC1 [Example 36, (R)-1-(4-(2-((1-(4-acetylpiperazin-1-yl)propan-2-yl)oxy)-7-(3-hydroxynaphthalen-1-yl)-5,6,7,8-tetrahydropyrido[3,4-d]pyrimidin-4-yl)piperazin-1-yl)prop-2-en-1-one]	> 1000 nM
C=CC(=O)N1CCN(c2nc(OCCN3CCN(C(C)=O)CC3)nc3c2CCN(c2cc(O)cc4ccccc24)C3)CC1 [Example 37, 1-(4-(2-(2-(4-acetylpiperazin-1-yl)ethoxy)-7-(3-hydroxynaphthalen-1-yl)-5,6,7,8-tetrahydropyrido[3,4-d]pyrimidin-4-yl)piperazin-1-yl)prop-2-en-1-one]	> 1000 nM
C=CC(=O)N1CCN(c2nc(OCCCN3CCCCC3)nc3c2CCN(c2cc(O)cc4ccccc24)C3)CC1 [Example 38, 1-(4-(7-(3-hydroxynaphthalen-1-yl)-2-(3-(piperidin-1-yl)propoxy)-5,6,7,8-tetrahydropyrido[3,4-d]pyrimidin-4-yl)piperazin-1-yl)prop-2-en-1-one]	0.1 to 1000 nM
C=CC(=O)N1CCN(c2nc(OCCCN3CCCC3)nc3c2CCN(c2cc(O)cc4ccccc24)C3)CC1 [Example 39, 1-(4-(7-(3-hydroxynaphthalen-1-yl)-2-(3-(pyrrolidin-1-yl)propoxy)-5,6,7,8-tetrahydropyrido[3,4-d]pyrimidin-4-yl)piperazin-1-yl)prop-2-en-1-one]	0.1 to 1000 nM
C=CC(=O)N1CCN(c2nc(OCCCCN(C)C)nc3c2CCN(c2cc(O)cc4ccccc24)C3)CC1 [Example 40, 1-(4-(2-(4-(dimethylamino)butoxy)-7-(3-hydroxynaphthalen-1-yl)-5,6,7,8-tetrahydropyrido[3,4-d]pyrimidin-4-yl)piperazin-1-yl)prop-2-en-1-one]	0.1 to 1000 nM
C=CC(=O)N1CCN(c2nc(OCCCN3CCOCC3)nc3c2CCN(c2cc(O)cc(C4CC4)c2)C3)CC1 [Example 41, 1-(4-(7-(3-cyclopropyl-5-hydroxyphenyl)-2-(3-morpholinopropoxy)-5,6,7,8-tetrahydropyrido[3,4-d]pyrimidin-4-yl)piperazin-1-yl)prop-2-en-1-one trifluoroacetate]	> 1000 nM
C=CC(=O)N1CCN(c2nc(OCCCN3CCOCC3)nc3c2CCN(c2cc(O)ccc2F)C3)CC1 [Example 42, 1-(4-(7-(2-fluoro-5-hydroxyphenyl)-2-(3-morpholinopropoxy)-5,6,7,8-tetrahydropyrido[3,4-d]pyrimidin-4-yl)piperazin-1-yl)prop-2-en-1-one]	> 1000 nM
C=CC(=O)N1CCN(c2nc(OCCCN3CCOCC3)nc3c2CCN(c2cc(O)cc4cc(C)ccc24)C3)CC1 [Example 43, 1-(4-(7-(3-hydroxy-6-methylnaphthalen-1-yl)-2-(3-morpholinopropoxy)-5,6,7,8-tetrahydropyrido[3,4-d]pyrimidin-4-yl)piperazin-1-yl)prop-2-en-1-one]	> 1000 nM
C=CC(=O)N1CCN(c2nc(OCCCN3CCOCC3)nc3c2CCN(c2c(C)ccc4[nH]ncc24)C3)CC1 [Example 44, 1-(4-(7-(5-methyl-1H-indazol-4-yl)-2-(3-morpholinopropoxy)-5,6,7,8-tetrahydropyrido[3,4-d]pyrimidin-4-yl)piperazin-1-yl)prop-2-en-1-one]	> 1000 nM
C=CC(=O)N1[C@@H]2CC[C@H]1CN(c1nc(OC(C)CN(C)C)nc3c1CCN(c1cc(O)cc4ccccc14)C3)C2 (stereo partly drawn) [Example 45, 1-((1R,5S)-3-(2-((1-(dimethylamino)propan-2-yl)oxy)-7-(3-hydroxynaphthalen-1-yl)-5,6,7,8-tetrahydropyrido[3,4-d]pyrimidin-4-yl)-3,8-diazabicyclo[3.2.1]octan-8-yl)prop-2-en-1-one]	> 1000 nM
C=CC(=O)N1C[C@H]2CC[C@@H](C1)N2c1nc(OC(C)CN(C)C)nc2c1CCN(c1cc(O)cc3ccccc13)C2 (stereo partly drawn) [Example 46, 1-((1R,5S)-8-(2-((1-(dimethylamino)propan-2-yl)oxy)-7-(3-hydroxynaphthalen-1-yl)-5,6,7,8-tetrahydropyrido[3,4-d]pyrimidin-4-yl)-3,8-diazabicyclo[3.2.1]octan-3-yl)prop-2-en-1-one]	> 1000 nM
C=CC(=O)N1CCN(c2nc(OCCN(C)C)nc3c2CCN(c2cc(O)cc4ccccc24)C3C)CC1 (stereo not drawn) [Example 47, 1-(4-(2-(2-(dimethylamino)ethoxy)-7-(3-hydroxynaphthalen-1-yl)-8-methyl-5,6,7,8-tetrahydropyrido[3,4-d]pyrimidin-4-yl)piperazin-1-yl)prop-2-en-1-one]	> 1000 nM
C=CC(=O)N1CCN(c2nc(OCCN(C)C)nc3c2CC(C)N(c2cc(O)cc4ccccc24)C3)CC1 (stereo not drawn) [Example 48, 1-(4-(2-(2-(dimethylamino)ethoxy)-7-(3-hydroxynaphthalen-1-yl)-6-methyl-5,6,7,8-tetrahydropyrido[3,4-d]pyrimidin-4-yl)piperazin-1-yl)prop-2-en-1-one trifluoroacetate]	> 1000 nM
C=CC(=O)N1CCN(c2nc(OCCN3CCC(F)C3)nc3c2CCN(c2cc(O)cc4ccccc24)C3)CC1 (stereo not drawn) [Example 49, 1-(4-(2-(2-(3-fluoropyrrolidin-1-yl)ethoxy)-7-(3-hydroxynaphthalen-1-yl)-5,6,7,8-tetrahydropyrido[3,4-d]pyrimidin-4-yl)piperazin-1-yl)prop-2-en-1-one]	> 1000 nM
C=CC(=O)N1CCN(c2nc(OCCN(C)C)nc3c2CCN(c2cc(O)cc4ccccc24)C3)CC1CO (stereo not drawn) [Example 50, 1-(4-(2-(2-(dimethylamino)ethoxy)-7-(3-hydroxynaphthalen-1-yl)-5,6,7,8-tetrahydropyrido [3,4-d]pyrimidin-4-yl)-2-(hydroxymethyl)piperazin-1-yl)prop-2-en-1-one]	> 1000 nM
